From US10925890B2, “Use of dextran sulfate” (TX MEDIC AB, priority 2014, dated 2021) come the findings set out here.

Common to all, as to type: in vivo
The test system of data set [1] is Rat Hind-Limb Ischemia Model. Nature of the data set: Angiography analysis, rat hind-limb ischemia. The conditions noted are these: 28 days after induction of hind-limb ischemia; p<0.01 and p<0.001. The protocol: The number of intersections between contrast-filled vessels was determined by image analysis 28 days after induction of hind-limb ischemia.
Data set [2] deals with Critical Hind-Limb Ischemia Mouse Model. Nature of the data set: Immunohistochemistry and capillaries density (CD34, SMA, FITC-dextran), mouse hind-limb ischemia. The protocol: Mice were sacrificed at study termination on day 36. Fluorescein isothiocyanate (FITC)—dextran 500000 Da conjugate 10 mg/ml was injected i.v. in a dose of 200 μl per mouse 5 minutes before sacrifice to all animals. Quadriceps muscle was dissected into coronary part. The muscle was fixed in 2.5% fresh paraformaldehyde (pH 7.4) for 24 hours and was then embedded in the paraffin for smooth muscle actin (SMA) with mouse monoclonal antibodies (anti-SMA Ab-1, clone 1A4, 1:800, Thermo scientific) and CD34 with anti CD34 (1:200, Cedralene) immunostaining. Paraffin embedding was done according the standard embedding procedure.
Stained sections were evaluated and photographed by fluorescence microscope (E600; Nikon, Tokyo, Japan) equipped with plan fluor objectives connected to a CCD camera (DMX1200F; Nikon). […] Digital images were collected and analyzed using Image Pro+ software. Four sections of muscle samples were taken from the same areas of eight animals from groups 1M, 3M and 4M. The area of blood vessels was measured. Density was expressed as the mean number of capillaries per field of view. Total vessels represent all blood vessels in the measured area.

Data set [3] concerns tMCAO rat-stroke model. Description: Body swing test, tMCAO rat. The conditions noted are these: all treated rats; day 7 up to day 28. The protocol: (§1) Transient middle cerebral artery occlusion was performed according to the method previously described in Stroke 29, 2162-2170 (1998). The right common carotid artery (CCA) was exposed through a midline neck incision and carefully dissected free from surrounding nerves and fascia—from its bifurcation to the base of the skull. The occipital artery branches of the external carotid artery (ECA) were then isolated, and these branches were dissected and coagulated. The ECA was dissected further distally and coagulated along with the terminal lingual and maxillary artery branches, which was then divided. The internal carotid artery (ICA) was isolated and carefully separated from the adjacent vagus nerve, and the pterygopalatine artery was ligated close to its origin with a 5-0 nylon suture (SMI, Belgium). […]
The rat was held approximately one inch from the base of its tail. […] A swing was recorded whenever the rat moves its head out of the vertical axis to either side. Before attempting another swing, the rat was returned to the vertical position for the next swing to be counted. Twenty total swings were counted. […] Body swing scores were expressed as a percentage of rightward over total swings. […]

Data set [4] deals with tMCAO rat-stroke model. Nature of the data set: Cerebral blood flow assessment (Flow-R Laser Doppler), tMCAO rat. The conditions noted are these: day 29. As for the experimental part: as §1, with “Belgium). Next a 4-0 silk suture was tied loosely around the mobilized ECA stump, and a 4 cm length of 4-0 monofilament nylon suture (the tip of the suture was blunted by using a flame, and the suture was coated with polylysine, prior to insertion) was inserted through the proximal ECA into the ICA and thence into the circle of Willis, effectively occluding the MCA.” for “Belgium).”
Evaluation of the blood flow on the brain cortex and vessel constriction was carried out using Flow-R Laser Doppler system, in which intracranial blood flow and vessels diameter (constriction/dilatation) was monitored. […]

Data set [5] relates to tMCAO rat-stroke model. Description: Brain immunostaining: capillaries density (SMA) and GFAP, tMCAO rat. The source says:
On day 30 after MCAO, rats were anesthetized by ketamine/xylazine were transcardiacly perfused by buffered paraformaldehyde (PFA) 4%. The brains were collected fixed in 4% buffered PFA for immunostaining and histological evaluation.
Two sections of brain samples were taken from the same areas of six animals from groups 1M and 3M. Capillaries were counted under the microscope in a total of three random fields from each section. Density was expressed as the mean number of capillaries per field of view.

The nature of data set [6]: Body weight, mouse critical limb ischemia study. The source says:
In total 60 male Balb/c mice, 9 weeks old, having an average body weight of 24.7 g at study initiation (day 0) were obtained from Harlan Laboratories, Israel. The minimal and maximal weight recorded in each group was within the range of ±20% of the group mean. Animals were handled according to the National Institute of Health (NIH) and the Association for Assessment and Accreditation of Laboratory Animal Care (AAALAC). Animals were housed in polysufone (PSU) cages (5/cage) measuring […], with stainless steel top grill having facilities for pelleted food and drinking water in glass-clear polycarbonate bottle; bedding: steam sterilized clean paddy husk (Harlan, Sani-chip, Cat #: 106S8216) was used and bedding material was changed along with the cage at least twice a week. Animals were fed ad libitum a commercial rodent diet (Teklad Certified Global 18% Protein Diet cat #: 106S8216). Animals had free access to autoclaved and acidified drinking water (pH between 2.5 and 3.5) obtained from the municipality supply. Animals were housed under standard laboratory conditions, air conditioned and filtered (HEPA F6/6) with adequate fresh air supply (minimum 15 air changes/hour). Animals were kept in a climate controlled environment. Temperatures range was 20-24° C. and RH range was 30-70% with 12 hours light and 12 hours dark cycle.
Body weight was measured on study day −1 prior to surgery and once a week thereafter. […] From day 14 onwards a gradual increase in weight was observed. Accordingly, between day 0 and day 35 the mean increase in body weight ranged between 0.4 g to 1.7 g, see Table 2.

Data set [7] is described as follows: Mortality and clinical signs, tMCAO rat study. The conditions noted are these: for Rats that died within 10 hours after dosing: vehicle group 1M: 6. As for the experimental part: Started two hours after occlusion (immediately after reperfusion), animals in groups 2M and 3M (dextran sulfate at doses of 30 mg/kg three times a week or 15 mg/kg daily) and animals in group 1M (vehicle control) were injected subcutaneously, see Table 10.
Eighteen rats died during the study. One rat died just after reperfusion before dosing, and seventeen rats within 10 hours after dosing (6 in group 1M, 6 in group 2M and 5 in group 3M).

Dextran sulfate: the “Angiography: collaterals in affected limb vs vehicle control” value in data set [1] was “significantly large numbers of collaterals”. In addition, in data set [2] (CD34 and FITC-dextran capillaries density, FIG. 4), the “Angiogenesis in ischemic (right) vs non-ischemic (left) limb” value was “only induce angiogenesis in the ischemic tissue”. Also, in data set [2] (groups 3M and 4M (30 mg/kg) vs 1M, day 35), the “Number of CD34 positive capillaries compared to control group” value is reported as “larger”. Further, in data set [2] (groups 3M and 4M, ischemic limb), the “FITC-dextran staining of capillaries (functional capillaries)” value was “functioning and active”. Further, in data set [2] (treated groups vs control), the “SMA staining, capillaries formation” value is “same increase in capillaries formations”. Moreover, the “Body swing test compared to vehicle control” value in the data set on tMCAO rat-stroke model [3] is on record as “statistically significant improvement”. For the same substance, in the data set on tMCAO rat-stroke model [4], the “Vessels diameter ratio versus control” value was “increased”. In addition, in the data set on tMCAO rat-stroke model [4] (groups 2M and 3M, damaged hemisphere), the “Cerebral blood perfusion rate versus control vehicle-treated group” value is listed as “Statistically significant improvement”. Besides, in the data set with tMCAO rat-stroke model [5] (15 mg/kg daily vs vehicle control), the “Number of SMA capillaries with diameter less than 30 μm” value is on record as “Improvement”. Further, the “Number of capillaries compared to vehicle treated control” value in the data set with tMCAO rat-stroke model [5] (15 mg/kg daily, 30 days after stroke) was “increased the number of capillaries”. Moreover, the “Inflammatory response compared to vehicle treated control” value with tMCAO rat-stroke model [5] (GFAP area, day 30) is “reduced inflammatory response”. Besides, the “Mean weight change from day 0 to day 35” value in data set [6] (group 2M, 10 mg/kg s.c. 3 times/week from day 8) amounted to 1.0 g; in data set [6] (group 3M, 30 mg/kg s.c. 3 times/week from day 8), 1.7 g; in data set [6] (group 4M, 30 mg/kg s.c. 1 time/week from day 8), 1.0 g. Also, the “Mean body weight, differences between the groups” value in data set [6] (throughout the study, two-way ANOVA, Bonferroni) is “no statistically significant differences”. Besides, the Adverse clinical signs entry in data set [7] (all animal groups) was “No adverse clinical signs unrelated to the model”. The “Rats that died within 10 hours after dosing” value turned out to be 6 rats in data set [7] (group 2M, 30 mg/kg s.c. 3 times a week) and 5 rats in data set [7] (group 3M, 15 mg/kg s.c. daily).
